Test results from patent US20250059182A1, “SOS1 INHIBITORS” (Mirati Therapeutics, Inc., priority 2021, published 2025).
Structures can show the parent of a compound that is named as a salt. Where two headings read alike, the source gives them in different places.

Legend:
[1] = molecular target: T1, recombinant human SOS1 polypeptide (amino acids 560-1049) (Homo sapiens, UniProt Q07889); assay: HTRF displacement assay: inhibition of labeled tracer binding to SOS1
T1 construct: corresponding to amino acids 560-1049, expressed in E. Coli; made in house; host or cells: E. coli
T1 sequence (Q07889 560-1049): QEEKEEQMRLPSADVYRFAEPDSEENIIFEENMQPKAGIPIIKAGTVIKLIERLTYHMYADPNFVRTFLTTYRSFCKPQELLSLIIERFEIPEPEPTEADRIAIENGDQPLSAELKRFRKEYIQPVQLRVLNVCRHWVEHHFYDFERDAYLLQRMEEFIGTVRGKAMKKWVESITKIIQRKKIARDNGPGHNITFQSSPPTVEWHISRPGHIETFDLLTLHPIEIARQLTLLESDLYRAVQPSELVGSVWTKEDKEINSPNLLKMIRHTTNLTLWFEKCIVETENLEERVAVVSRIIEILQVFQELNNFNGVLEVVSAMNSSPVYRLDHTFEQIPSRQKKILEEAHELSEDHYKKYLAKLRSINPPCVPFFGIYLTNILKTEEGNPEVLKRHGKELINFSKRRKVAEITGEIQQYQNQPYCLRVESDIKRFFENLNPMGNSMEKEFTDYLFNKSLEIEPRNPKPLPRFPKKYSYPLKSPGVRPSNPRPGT
Experimental: The ability of a compound of Formula (I) to bind to SOS1 was measured using a HTRF displacement assay. […] After a 1-hour incubation at room temperature, the HTRF signal was measured using Clairostar plate reader (BMG Labtech) according to the manufacturer's instructions. Excitation filter EX-TR was used, and emission 1 was detected at 650-610 nm and emission 2 detected at 620-610 nm. The HTRF ratio was calculated using the formula: [emission 1/emission 2]*10000.
Background signals were calculated from well with a 10 μM inhibitor, known to inhibit 100% at that concentration. The background subtracted signals were converted to % binding relative to DMSO controls. Data were analyzed using XLFIT software (IDBS) using a Morrison equation for competitive binding and Ki's were generated compound of Formula (I).

pERK in MKN1 cells = assay: pERK inhibition, In-Cell Western (LI-COR Odyssey), MKN1 cells; type: cell-based
Summary of the method: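 MKN1 cells were exposed for about 0.5–1 h at 37 °C to nine 3-fold dilutions starting at 10 µM. Cells were then fixed in formaldehyde, permeabilised with methanol, and immunostained for pERK and GAPDH with near-infrared secondary antibodies. GAPDH-normalised pERK signal relative to vehicle gave % inhibition, from which IC50 was fitted.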

[2] = Table A, Morrison equation for competitive binding
[3] = Homo sapiens, MKN-1, Table B, MKN1 or H358 cells (table does not say which), 0.5-1 hour incubation, read-out: IC50 (nM), pERK inhibition
[4] = Table A1, Morrison equation for competitive binding
[5] = Homo sapiens, MKN-1, Table B1, MKN1 or H358 cells (table does not say which), 0.5-1 hour incubation, read-out: IC50 (nM), pERK inhibition

**Q.** With `Cc1c(C#N)cccc1[C@@H](C)Nc1nnc(C)c2cc(F)c(N3C[C@@H]4C[C@H]3CN4C)cc12` [Example 4-21, 3-((R)-1-((6-fluoro-4-methyl-7-((1S,4S)-5-methyl-2,5-diazabicyclo[2.2.1]heptan-2-yl)phthalazin-1-yl)amino)ethyl)-2-methylbenzonitrile] as the compound, how does the Ki [1, 2] read?
**A.** Its Ki is 2 nM.

**Q.** What about the IC50 (pERK in MKN1 cells; Table B, MKN1 or H358 cells (table does not say which), 0.5-1 hour incubation, read-out: IC50 (nM), pERK inhibition) of the same compound?
**A.** The IC50 was 16 nM.

**Q.** For `Cc1c([C@@H](C)Nc2nnc(C)c3cc(F)c(N4CCOCC4)cc23)cc(N)nc1C(F)(F)F` [Example 4-22, (R)-N-(1-(6-amino-3-methyl-2-(trifluoromethyl)pyridin-4-yl)ethyl)-6-fluoro-4-methyl-7-morpholinophthalazin-1-amine], which Ki [1, 2] is on record?
**A.** Its Ki is 22 nM.

**Q.** And the IC50 (pERK in MKN1 cells; [3])?
**A.** The IC50 was 49 nM.

**Q.** Which Ki [1, 2] does the source give for `Cc1nnc(N[C@H](C)c2cccc(C(F)(F)F)c2F)c2cc(N(C)C3CCN(C)CC3)c(F)cc12` [Example 4-23, (R)-6-fluoro-N^1-(1-(2-fluoro-3-(trifluoromethyl)phenyl)ethyl)-N^7,4-dimethyl-N^7-(1-methylpiperidin-4-yl)phthalazine-1,7-diamine] here?
**A.** The Ki was 1.2 nM.

**Q.** And the IC50 (pERK in MKN1 cells; [3])?
**A.** The IC50 was 25 nM.

**Q.** `Cc1c(C#N)cccc1[C@@H](C)Nc1nnc(N2CC[C@@H](N)C2)c2cnc(N3C[C@H]4C[C@@H]3CO4)cc12` [Example 5-1, 3-((R)-1-((4-((R)-3-aminopyrrolidin-1-yl)-7-((1R, 4R)-2-oxa-5-azabicyclo[2.2.1]heptan-5-yl)pyrido[3,4-d]pyridazin-1-yl)amino)ethyl)-2-methylbenzonitrile] was tested. Which Ki [1, 2] did it give?
**A.** The Ki was 0.505 nM.

**Q.** What about the IC50 (pERK in MKN1 cells; [3]) of the same compound?
**A.** Its IC50 is 1320 nM.

**Q.** With `Cc1c(C#N)cccc1[C@@H](C)Nc1nnc(N2CC[C@@H](N(C)C)C2)c2cnc(N3C[C@H]4C[C@@H]3CO4)cc12` [Example 5-2, 3-((R)-1-((7-((1R, 4R)-2-oxa-5-azabicyclo[2.2.1]heptan-5-yl)-4-((R)-3-(dimethylamino)pyrrolidin-1-yl)pyrido[3,4-d]pyridazin-1-yl)amino)ethyl)-2-methylbenzonitrile] as the compound, how does the Ki [1, 2] read?
**A.** Its Ki is 0.973 nM.

**Q.** What about the IC50 (pERK in MKN1 cells; [3]) of the same compound?
**A.** Its IC50 is 115 nM.

**Q.** How did the Ki [1, 2] turn out when `Cc1c(C#N)cccc1[C@@H](C)Nc1nnc(CN(C)C)c2cnc(N3CC4(COC4)C3)cc12` [Example 6-1, (R)-3-(1-((4-((dimethylamino)methyl)-7-(2-oxa-6-azaspiro[3.3]heptan-6-yl)pyrido[3,4-d]pyridazin-1-yl)amino)ethyl)-2-methylbenzonitrile] was run?
**A.** Its Ki is 18.3 nM.

**Q.** What about the IC50 (pERK in MKN1 cells; [3]) of the same compound?
**A.** Its IC50 is 171 nM.

**Q.** How did the Ki [1, 2] turn out when `COc1cc2c(C)nnc(N[C@H](C)c3cccc(C#N)c3C)c2cc1OC` [Example 6-7, (R)-3-(1-((6,7-dimethoxy-4-methylphthalazin-1-yl)amino)ethyl)-2-methylbenzonitrile] was run?
**A.** The Ki was 14.5 nM.

**Q.** And the IC50 (pERK in MKN1 cells; [3])?
**A.** Its IC50 is 177 nM.

**Q.** Which Ki [1, 2] does the source give for `Cc1c(C#N)cccc1[C@@H](C)Nc1nnc(C)c2cnc(C3CCN(C)CC3)cc12` [Example 6-14, (R)-2-methyl-3-(1-((4-methyl-7-(1-methylpiperidin-4-yl)pyrido[3,4-d]pyridazin-1-yl)amino)ethyl)benzonitrile] here?
**A.** The Ki was 8.89 nM.

**Q.** And the IC50 (pERK in MKN1 cells; [3])?
**A.** Its IC50 is 468 nM.

**Q.** With `Cc1nnc(N[C@H](C)c2cccc(C(F)(F)F)c2F)c2cc(N3CCN(C)CC3)c(C#N)cc12` [Example 6-17, (R)-1-((1-(2-fluoro-3-(trifluoromethyl)phenyl)ethyl)amino)-4-methyl-7-(4-methylpiperazin-1-yl)phthalazine-6-carbonitrile] as the compound, how does the Ki [1, 2] read?
**A.** The Ki was 2.29 nM.

**Q.** What about the IC50 (pERK in MKN1 cells; [3]) of the same compound?
**A.** Its IC50 is 139 nM.

**Q.** What does the source list for `Cc1nnc(N[C@H](C)c2cccc(C(F)(F)F)c2F)c2cc(N3CCOCC3)c(C#N)cc12` [Example 6-18, (R)-1-((1-(2-fluoro-3-(trifluoromethyl)phenyl)ethyl)amino)-4-methyl-7-morpholinophthalazine-6-carbonitrile]?
**A.** Ki [1, 2]: 7.06 nM; IC50 (pERK in MKN1 cells; [3]): 311 nM

**Q.** For `Cc1c(C#N)cccc1[C@@H](C)Nc1nnc(C)c2cc(C#N)c(N3CCN(C)CC3)cc12` [Example 6-19, (R)-1-((1-(3-cyano-2-methylphenyl)ethyl)amino)-4-methyl-7-(4-methylpiperazin-1-yl)phthalazine-6-carbonitrile], which Ki [1, 2] is on record?
**A.** Its Ki is 2.94 nM.

**Q.** And the IC50 (pERK in MKN1 cells; [3])?
**A.** Its IC50 is 222 nM.

**Q.** What does the source list for `Cc1nnc(N[C@H](C)c2cccc(C(F)(F)F)c2F)c2cc(N3C[C@H]4C[C@@H]3CO4)c(C#N)cc12` [Example 6-20, 7-((1R,4R)-2-oxa-5-azabicyclo[2.2.1]heptan-5-yl)-1-(((R)-1-(2-fluoro-3-(trifluoromethyl)phenyl)ethyl)amino)-4-methylphthalazine-6-carbonitrile]?
**A.** Ki [1, 2]: 1.4 nM; IC50 (pERK in MKN1 cells; [3]): 218 nM

**Q.** Which results are given for `Cc1c(C#N)cccc1[C@@H](C)Nc1nnc(C)c2cc(Cl)c(N3CCN(C)CC3)cc12` [Example 7-1, (R)-3-(1-((6-chloro-4-methyl-7-(4-methylpiperazin-1-yl)phthalazin-1-yl)amino)ethyl)-2-methylbenzonitrile]?
**A.** Ki [1, 2]: 1.79 nM; IC50 (pERK in MKN1 cells; [3]): 150 nM

**Q.** With `Cc1c(C#N)cccc1[C@@H](C)Nc1nnc(C)c2cnc(N3CCCCC3)cc12` [Example P-3, (R)-2-methyl-3-(1-((4-methyl-7-(piperidin-1-yl)pyrido[3,4-d]pyridazin-1-yl)amino)ethyl)benzonitrile] as the compound, how does the Ki [1, 4] read?
**A.** Its Ki is 2.22 nM.

**Q.** And the IC50 (pERK in MKN1 cells; [5])?
**A.** The IC50 was 302 nM.

**Q.** What does the source list for `COC1(C)CCN(c2cc3c(N[C@H](C)c4cccc(C#N)c4C)nnc(C)c3cn2)CC1` [Example P-9, (R)-3-(1-((7-(4-methoxy-4-methylpiperidin-1-yl)-4-methylpyrido[3,4-d]pyridazin-1-yl)amino)ethyl)-2-methylbenzonitrile, formic acid salt]?
**A.** Ki [1, 4]: 0.989 nM; IC50 (pERK in MKN1 cells; Homo sapiens, MKN-1, read-out: IC50 (nM), pERK inhibition): 90.2 nM

**Q.** `COC1CCN(c2cc3c(N[C@H](C)c4cccc(C#N)c4C)nnc(C)c3cn2)CC1` [Example P-15, (R)-3-(1-((7-(4-methoxypiperidin-1-yl)-4-methylpyrido[3,4-d]pyridazin-1-yl)amino)ethyl)-2-methylbenzonitrile] was tested. Which Ki [1, 4] did it give?
**A.** The Ki was 1.12 nM.

**Q.** And the IC50 (pERK in MKN1 cells; [5])?
**A.** The IC50 was 66.1 nM.

**Q.** What does the source list for `Cc1c(C#N)cccc1[C@@H](C)Nc1nnc(C)c2cnc(N3CCn4cnnc4C3)cc12` [Example P-21, (R)-3-(1-((7-(5,6-dihydro-[1,2,4]triazolo[4,3-a]pyrazin-7(8H)-yl)-4-methylpyrido[3,4-d]pyridazin-1-yl)amino)ethyl)-2-methylbenzonitrile]?
**A.** Ki [1, 4]: 2.17 nM; IC50 (pERK in MKN1 cells; [5]): 2560 nM

**Q.** With `Cc1c(C#N)cccc1[C@@H](C)Nc1nnc(C)c2cnc(N3CCn4c(C)nnc4C3)cc12` [Example P-27, (R)-2-methyl-3-(1-((4-methyl-7-(3-methyl-5,6-dihydro-[1,2,4]triazolo[4,3-a]pyrazin-7(8H)-yl)pyrido[3,4-d]pyridazin-1-yl)amino)ethyl)benzonitrile] as the compound, how does the Ki [1, 4] read?
**A.** Its Ki is 1.26 nM.

**Q.** What about the IC50 (pERK in MKN1 cells; [5]) of the same compound?
**A.** Its IC50 is > 10000 nM.

**Q.** Which Ki [1, 4] does the source give for `Cc1c(C#N)cccc1[C@@H](C)Nc1nnc(C)c2cnc(N3CCn4c(nnc4C(F)(F)F)C3)cc12` [Example P-33, (R)-2-methyl-3-(1-((4-methyl-7-(3-(trifluoromethyl)-5,6-dihydro-[1,2,4]triazolo[4,3-a]pyrazin-7(8H)-yl)pyrido[3,4-d]pyridazin-1-yl)amino)ethyl)benzonitrile] here?
**A.** Its Ki is 6.92 nM.

**Q.** What about the IC50 (pERK in MKN1 cells; [5]) of the same compound?
**A.** The IC50 was 121 nM.

**Q.** Which results are given for `Cc1c(C#N)cccc1[C@@H](C)Nc1nnc(C)c2cnc(N3CCc4c(cnn4C)C3)cc12` [Example P-39, (R)-2-methyl-3-(1-((4-methyl-7-(1-methyl-1,4,6,7-tetrahydro-5H-pyrazolo[4,3-c]pyridin-5-yl)pyrido[3,4-d]pyridazin-1-yl)amino)ethyl)benzonitrile]?
**A.** Ki [1, 4]: 1.1 nM; IC50 (pERK in MKN1 cells; [5]): 96.9 nM

**Q.** Which results are given for `Cc1c(C#N)cccc1[C@@H](C)Nc1nnc(C)c2cnc(N3CCc4c(ncn4C)C3)cc12` [Example P-45, (R)-2-methyl-3-(1-((4-methyl-7-(1-methyl-1,4,6,7-tetrahydro-5H-imidazo[4,5-c]pyridin-5-yl)pyrido[3,4-d]pyridazin-1-yl)amino)ethyl)benzonitrile]?
**A.** Ki [1, 4]: 0.777 nM; IC50 (pERK in MKN1 cells; [5]): 176 nM

**Q.** How did the Ki [1, 4] turn out when `Cc1c(C#N)cccc1[C@@H](C)Nc1nnc(C)c2cnc(N3CCc4ncn(C)c4C3)cc12` [Example P-57, (R)-2-methyl-3-(1-((4-methyl-7-(3-methyl-3,4,6,7-tetrahydro-5H-imidazo[4,5-c]pyridin-5-yl)pyrido[3,4-d]pyridazin-1-yl)amino)ethyl)benzonitrile] was run?
**A.** Its Ki is 1.17 nM.

**Q.** What about the IC50 (pERK in MKN1 cells; [5]) of the same compound?
**A.** The IC50 was 914 nM.

**Q.** Which results are given for `COC1(c2cc3c(N[C@H](C)c4cccc(C#N)c4C)nnc(C)c3cn2)CCN(C)CC1` [Example P-69, (R)-3-(1-((7-(4-methoxy-1-methylpiperidin-4-yl)-4-methylpyrido[3,4-d]pyridazin-1-yl)amino)ethyl)-2-methylbenzonitrile]?
**A.** Ki [1, 4]: 51.8 nM; IC50 (pERK in MKN1 cells; [5]): 849 nM

**Q.** For `COC1(c2cc3c(N[C@H](C)c4cccc(C#N)c4C)nnc(C)c3cn2)CCN(C(C)=O)CC1` [Example P-75, (R)-3-(1-((7-(1-acetyl-4-methoxypiperidin-4-yl)-4-methylpyrido[3,4-d]pyridazin-1-yl)amino)ethyl)-2-methylbenzonitrile], which Ki [1, 4] is on record?
**A.** Its Ki is 17.6 nM.

**Q.** What about the IC50 (pERK in MKN1 cells; [5]) of the same compound?
**A.** Its IC50 is 568 nM.
